A short description of data set [1]: Cytotoxicity against human A-431 cells harboring wild type EGFR assessed as reduction in cell viability measured after 72 hrs by MTT assay. It is filed as toxicity, cell-based.
Data set [2] can be described thus: Selectivity ratio of IC50 for cytotoxicity against human A-431 cells harboring wild type EGFR to IC50 for antiproliferative activity against human NCI-H1975 cells harboring EGFR L858R/T790M mutant. Conditions: read-out: Ratio IC50. It is filed as toxicity, cell-based.
Data set [3] in a line: Selectivity ratio of IC50 for cytotoxicity against human A549 cells harboring wild type EGFR to IC50 for antiproliferative activity against human NCI-H1975 cells harboring EGFR L858R/T790M mutant. It is filed as toxicity, cell-based. Conditions: read-out: Ratio IC50.
Data set [4] can be described thus: Cytotoxicity against human A549 cells harboring wild type EGFR assessed as reduction in cell viability measured after 72 hrs by MTT assay. It is filed as toxicity, cell-based. (In general: Tetrazolium dyes change colour on reduction, which living cells bring about.)
For data set [5], the system named is NCI-H1975. Nature of the data set: Antiproliferative activity against human NCI-H1975 cells harboring EGFR L858R/T790M mutant assessed as reduction in cell viability measured after 72 hrs by MTT assay. As to conditions: NCI-H1975, 72 h. It is filed as functional, cell-based.
For data set [6], the system named is HCC827. Nature of the data set: Antiproliferative activity against human HCC827 cells harboring EGFR exon del 19 mutant assessed as reduction in cell viability measured after 72 hrs by MTT assay. As to conditions: HCC827, 72 h. It is filed as functional, cell-based.
For data set [7], the target named is Epidermal growth factor receptor (Homo sapiens, UniProt P00533, L858R/T790M). Nature of the data set: Inhibition of human partial length EGFR (R669 to V1011 residues) L858R/T790M mutant expressed in mammalian expression system by KINOMEscan analysis.
Chain of Epidermal growth factor receptor (Homo sapiens, UniProt P00533, L858R/T790M) (P00533 25-1210 T790M/L858R limits assumed): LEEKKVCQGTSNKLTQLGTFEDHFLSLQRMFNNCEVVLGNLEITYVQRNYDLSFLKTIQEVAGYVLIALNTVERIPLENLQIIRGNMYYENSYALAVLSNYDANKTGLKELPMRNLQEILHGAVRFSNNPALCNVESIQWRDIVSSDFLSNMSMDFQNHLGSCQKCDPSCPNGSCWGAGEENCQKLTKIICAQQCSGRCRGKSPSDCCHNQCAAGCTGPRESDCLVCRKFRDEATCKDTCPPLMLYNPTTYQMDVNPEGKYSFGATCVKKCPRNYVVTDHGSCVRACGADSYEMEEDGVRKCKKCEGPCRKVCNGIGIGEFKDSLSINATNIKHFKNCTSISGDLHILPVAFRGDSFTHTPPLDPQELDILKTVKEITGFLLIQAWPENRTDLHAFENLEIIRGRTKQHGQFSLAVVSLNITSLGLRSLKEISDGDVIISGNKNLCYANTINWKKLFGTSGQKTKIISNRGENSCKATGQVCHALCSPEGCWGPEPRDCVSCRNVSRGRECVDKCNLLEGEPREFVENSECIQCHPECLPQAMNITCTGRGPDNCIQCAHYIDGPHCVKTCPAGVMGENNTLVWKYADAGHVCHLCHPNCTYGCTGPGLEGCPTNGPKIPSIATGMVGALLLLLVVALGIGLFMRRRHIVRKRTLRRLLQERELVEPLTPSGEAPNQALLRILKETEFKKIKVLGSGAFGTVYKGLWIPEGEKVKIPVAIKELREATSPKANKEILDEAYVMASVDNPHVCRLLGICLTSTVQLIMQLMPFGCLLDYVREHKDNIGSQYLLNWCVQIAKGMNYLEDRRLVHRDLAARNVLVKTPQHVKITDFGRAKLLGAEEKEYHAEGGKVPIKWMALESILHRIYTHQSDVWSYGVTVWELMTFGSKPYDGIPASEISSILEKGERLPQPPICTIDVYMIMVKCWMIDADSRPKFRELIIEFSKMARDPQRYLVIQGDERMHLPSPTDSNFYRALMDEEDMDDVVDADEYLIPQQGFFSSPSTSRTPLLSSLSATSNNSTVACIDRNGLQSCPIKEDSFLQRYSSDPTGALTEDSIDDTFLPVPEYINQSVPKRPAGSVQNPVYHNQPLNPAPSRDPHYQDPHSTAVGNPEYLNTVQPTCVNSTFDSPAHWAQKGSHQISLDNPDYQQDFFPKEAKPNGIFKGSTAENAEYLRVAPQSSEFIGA
The target in data set [8] is Epidermal growth factor receptor (Homo sapiens, UniProt P00533). Nature of the data set: Inhibition of human wild type partial length EGFR (R669 to V1011 residues) expressed in bacterial expression system by KINOMEscan analysis. It is filed as toxicity.
Chain of Epidermal growth factor receptor (Homo sapiens, UniProt P00533) (P00533 whole entry, the tested form may be a part): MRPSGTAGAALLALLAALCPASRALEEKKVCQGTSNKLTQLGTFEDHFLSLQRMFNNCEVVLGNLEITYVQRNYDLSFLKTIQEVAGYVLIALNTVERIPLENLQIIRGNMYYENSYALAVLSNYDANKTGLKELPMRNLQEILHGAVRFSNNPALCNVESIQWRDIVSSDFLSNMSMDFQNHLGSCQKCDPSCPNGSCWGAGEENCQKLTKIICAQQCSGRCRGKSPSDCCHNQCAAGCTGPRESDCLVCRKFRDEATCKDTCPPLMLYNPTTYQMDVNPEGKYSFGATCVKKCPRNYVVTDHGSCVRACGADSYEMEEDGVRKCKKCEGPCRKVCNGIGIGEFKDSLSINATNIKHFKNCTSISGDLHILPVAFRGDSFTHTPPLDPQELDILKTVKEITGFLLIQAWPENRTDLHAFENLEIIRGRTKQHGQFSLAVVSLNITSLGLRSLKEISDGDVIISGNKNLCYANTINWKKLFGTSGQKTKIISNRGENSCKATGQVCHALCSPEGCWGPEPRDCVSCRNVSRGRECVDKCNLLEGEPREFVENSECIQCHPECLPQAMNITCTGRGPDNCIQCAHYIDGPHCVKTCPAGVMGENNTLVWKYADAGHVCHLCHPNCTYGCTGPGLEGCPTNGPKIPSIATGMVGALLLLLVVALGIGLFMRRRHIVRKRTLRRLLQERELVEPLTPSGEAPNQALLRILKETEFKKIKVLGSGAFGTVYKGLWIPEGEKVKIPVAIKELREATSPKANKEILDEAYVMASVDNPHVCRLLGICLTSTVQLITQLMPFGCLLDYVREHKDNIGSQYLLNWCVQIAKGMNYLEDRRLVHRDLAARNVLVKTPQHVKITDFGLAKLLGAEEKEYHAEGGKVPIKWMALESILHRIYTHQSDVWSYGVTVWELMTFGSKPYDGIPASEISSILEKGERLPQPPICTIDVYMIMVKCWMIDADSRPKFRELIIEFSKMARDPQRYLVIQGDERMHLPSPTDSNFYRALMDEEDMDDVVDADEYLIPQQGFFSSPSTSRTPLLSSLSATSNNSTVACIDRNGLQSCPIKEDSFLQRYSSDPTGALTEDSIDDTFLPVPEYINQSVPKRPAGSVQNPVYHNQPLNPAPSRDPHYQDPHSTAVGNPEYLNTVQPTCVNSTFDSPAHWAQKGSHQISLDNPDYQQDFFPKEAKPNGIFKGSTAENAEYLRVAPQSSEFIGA

Usually IC50 stands for the point on the concentration scale where inhibition reaches its midpoint. Consider `C=CC(=O)Nc1cccc(Nc2nc(Nc3ccc(N4CCN(C)CC4)cc3)nc3ccc(Cl)cc23)c1`, for which the results for the IC50 at 72 h in data set [1] and in data set [4] were 1.24 µM and 0.816 µM, respectively. Further, the selectivity ratio in data set [2] came to 73; in data set [3] it was 48. In addition, the IC50 in data set [5] was determined as 0.017 µM; in data set [6], 0.013 µM.
Turning to `C=CC(=O)Nc1cccc(Nc2nc(Nc3ccc(N4CCN(CC)CC4)cc3)nc3ccc(Cl)cc23)c1`, the figures for the concentration for half-maximal inhibition (IC50) at 72 h in data set [1] and in data set [4] were 0.735 µM and 0.672 µM, respectively. Moreover, the selectivity ratio in data set [2] came to 35; in data set [3], 32. For the same compound, the IC50 in data set [5] was 0.021 µM; in data set [6], 0.012 µM.
On to `C=CC(=O)Nc1cccc(Nc2nc(Nc3ccc(N(C)C)cc3)nc3ccc(Cl)cc23)c1`, for which the IC50 in data set [7] is 1.8 µM; in data set [8] it was over 10 µM; in data set [5], 2.3 µM. Also, the half-maximal inhibitory concentration (IC50) at 72 h in data set [4] is over 10 µM.
On to `C=CC(=O)Nc1cccc(Nc2nc(Nc3ccc(N4CCOCC4)cc3)nc3ccc(Cl)cc23)c1`, for which the IC50 at 72 h in data set [1] and in data set [4] was over 10 µM in each case. The results for the IC50 in data set [5] and in data set [6] were 8.56 µM and 8.86 µM, respectively.
As for `C=CC(=O)Nc1cccc(Nc2nc(Nc3ccc(N4CCN(C)CC4)cc3)nc3ccc(C)cc23)c1`, the IC50 at 72 h stood at 1.1 µM in data set [1] and 2.31 µM in data set [4]. The IC50 was found to be 1.98 µM in data set [5] and 1.55 µM in data set [6].
Taken in the same sequence, the figures for `C=CS(=O)(=O)Nc1cccc(Nc2nc(Nc3ccc(N4CCN(C)CC4)cc3)nc3ccc(Cl)cc23)c1` were 8.77 µM, over 10 µM, 1.03 µM and 1.49 µM.
Taken in the same sequence, the figures for `C=CC(=O)Nc1cccc(Nc2nc(Nc3ccc(N4CCN(C)CC4)cc3)nc3cccc(Cl)c23)c1` were 4.58 µM, 3.88 µM, 1.02 µM and 0.987 µM.
For `CCC(=O)Nc1cccc(Nc2nc(Nc3ccc(N4CCN(C)CC4)cc3)nc3ccc(Cl)cc23)c1` the same measures were over 10 µM, over 10 µM, 7.33 µM and 6.48 µM.
Consider `C=CC(=O)Nc1cccc(Nc2nc(Nc3ccc(N(C)CCN(C)C)cc3OC)nc3ccc(F)cc23)c1`, for which the half-maximal inhibitory concentration (IC50) at 72 h in data set [1] and in data set [4] was over 10 µM in each case. Further, the IC50 in data set [5] stood at 8.75 µM; in data set [6], 6.58 µM.
For `C=CC(=O)Nc1cccc(Nc2nc(Nc3ccc(N4CCN(CC)CC4)cc3)nc3ccc(F)cc23)c1`, the values for the IC50 at 72 h in data set [1] and in data set [4] were 1.55 µM and 1.52 µM, respectively. Moreover, the selectivity ratio stood at 62 in data set [2] and 60 in data set [3]. Besides, the 50% inhibitory concentration (IC50) in data set [5] was found to be 0.025 µM; in data set [6] it was 0.011 µM.
As for `C=CC(=O)Nc1cccc(Nc2nc(Nc3ccc(N4CCN(C)CC4)cc3)nc3cc(Cl)ccc23)c1`, the half-inhibitory concentration (IC50) at 72 h was 7.62 µM in data set [1] and 5.79 µM in data set [4]. Besides, the figures for the IC50 in data set [5] and in data set [6] were 3.28 µM and 1.85 µM, respectively.
`C=CC(=O)Nc1cccc(Nc2nc(Nc3ccc(N4CCN(C)CC4)cc3)nc3ccc(OC)cc23)c1`: the results for the concentration for half-maximal inhibition (IC50) at 72 h in data set [1] and in data set [4] were 4.82 µM and 3.99 µM, respectively. Also, the IC50 in data set [5] is 2.98 µM; in data set [6] it was 1.76 µM.
For `C=CC(=O)Nc1cccc(Nc2nc(Nc3ccc(N4CCN(C)CC4)c(F)c3)nc3ccc(F)cc23)c1` the same measures were 1.28 µM, 2.47 µM, 0.035 µM and 0.02 µM.
For `C=CC(=O)Nc1cccc(Nc2nc(Nc3ccc(N4CCN(C)CC4)cc3)nc3cc(OC)c(OC)cc23)c1` the same measures were over 10 µM, over 10 µM, 4.2 µM and 4.23 µM.
With `C=CC(=O)Nc1cccc(Nc2nc(Nc3ccc(N4CCN(C)CC4)cc3)nc3c2CN(C(=O)OC(C)(C)C)CC3)c1`, the IC50 at 72 h in data set [1] and in data set [4] was over 10 µM each time. Besides, the IC50 in data set [5] was 8.65 µM; in data set [6] it was 7.81 µM.
Turning to `C=CC(=O)Nc1ccc(Nc2nc(Nc3ccc(N4CCN(C)CC4)cc3)nc3ccc(Cl)cc23)cc1`, the concentration for half-maximal inhibition (IC50) at 72 h in data set [1] and in data set [4] was over 10 µM throughout. For the same compound, the results for the 50% inhibitory concentration (IC50) in data set [5] and in data set [6] were 2.32 µM and 1.28 µM, respectively.
Regarding `C=CC(=O)Nc1cccc(Nc2nc(Nc3ccc(N(C)CCN(C)C)cc3OC)nc3ccc(Cl)cc23)c1`, the half-inhibitory concentration (IC50) at 72 h in data set [1] and in data set [4] was over 10 µM each time. Besides, the 50% inhibitory concentration (IC50) in data set [5] turned out to be 6.84 µM; in data set [6] it was 5.98 µM.
Consider `C=CC(=O)Nc1cccc(Nc2nc(Nc3ccc(N4CCN(C)CC4)cc3)nc3cc(F)ccc23)c1`, for which the half-inhibitory concentration (IC50) at 72 h was 9.04 µM in data set [1] and 7.81 µM in data set [4]. Further, the IC50 in data set [5] came out at 2.34 µM; in data set [6], 1.04 µM.
For `C=CC(=O)Nc1cccc(Nc2nc(Nc3ccc(N(C)CCN(C)C)cc3)nc3ccc(Cl)cc23)c1` the same measures were 2.89 µM, 2.3 µM, 1.24 µM and 0.95 µM.
Consider `C=CC(=O)Nc1cccc(Nc2nc(Nc3ccc(N4CCN(C)CC4)cc3)nc3c2CCN(C(=O)OC(C)(C)C)C3)c1`, for which the IC50 at 72 h in data set [1] and in data set [4] was over 10 µM each time. Moreover, the IC50 in data set [5] and in data set [6] was over 10 µM throughout.
Consider `C=CC(=O)Nc1cccc(Nc2nc(Nc3ccc(N4CCN(C)CC4)cc3)nc3ccccc23)c1`, for which the half-maximal inhibitory concentration (IC50) at 72 h was determined as 6.79 µM in data set [1] and 9.85 µM in data set [4]. For the same compound, the IC50 in data set [5] and in data set [6] was 2.32 µM in each case.
`C=CC(=O)Nc1cccc(Nc2nc(Nc3ccc(N4CCN(C)CC4)cc3)nc3cc(OC)ccc23)c1`: the half-maximal inhibitory concentration (IC50) at 72 h in data set [1] and in data set [4] was over 10 µM in each case. The half-maximal inhibitory concentration (IC50) was determined as 7.84 µM in data set [5] and 4.31 µM in data set [6].
In the case of `C=CC(=O)Nc1cccc(Nc2nc(Nc3ccc(N4CCN(C)CC4)cc3)nc3ccc(C(F)(F)F)cc23)c1`, the half-maximal inhibitory concentration (IC50) at 72 h is 7.64 µM in data set [1] and over 10 µM in data set [4]. Moreover, the 50% inhibitory concentration (IC50) in data set [5] was 4.76 µM; in data set [6], 4.68 µM.
With `C=CC(=O)Nc1cccc(Nc2nc(Nc3ccc(N4CCN(C)CC4)cc3)nc3c2CCCC3)c1`, the IC50 at 72 h is 4.56 µM in data set [1] and 5.64 µM in data set [4]. The IC50 was found to be 3.43 µM in data set [5] and 2.31 µM in data set [6].
Taken in the same sequence, the figures for `C=CC(=O)Nc1cccc(Nc2nc(Nc3ccc(N4CCN(C)CC4)c(F)c3)nc3ccc(Cl)cc23)c1` were 2.31 µM, 1.5 µM, 0.045 µM and 0.019 µM.
For `C=CC(=O)Nc1cccc(Nc2nc(Nc3ccc(N4CCN(C)CC4)cc3)nc3ccc(I)cc23)c1`, the IC50 at 72 h in data set [1] and in data set [4] was over 10 µM throughout. The IC50 in data set [5] worked out at 5.76 µM; in data set [6] it was 4.59 µM.

The values above are taken from ChEMBL document CHEMBL5380860, “Design, Synthesis, and Antitumor Activity of Potent and Selective EGFR L858R/T790M Inhibitors and Identification of a Combination Therapy to Overcome Acquired Resistance in Models of Non-small-cell Lung Cancer” (J Med Chem, 2023).
